Data reported in patent publication US7378237B2, “Development of method for screening physiologically active pyrrole imidazole derivative” (Japan Science & Technology Corporation, priority 1999, dated 2008).

Test system: double-stranded DNA
Assay: Alkylation and cleavage of double-stranded DNA by ImPyLDu86 (gel, cleavage bands by heating)
Type: biochemical
Conditions: cleavage mainly at site 1 and site 2, bands after heating, FIG. 1
Method: Reactivities of thus synthesized PyPyLDu86 and ImPyLDu86 with DNA were determined.
Locations of alkylation can be observed as cleavage bands by heating. As a result, the double-stranded DNA was cleaved mainly at the site 1 and the site 2 from a low concentration, and it was understood that the alkylation occurred simultaneously in the double-stranded DNA. No compound to generate such a cleavage has been known until now, and it can be surely regarded as an artificial restriction enzyme.

COC(=O)c1c(C)[nH]c2c1C13CC1CN(C(=O)/C=C/c1cc(NC(=O)c4nc(NC(C)=O)cn4C)cn1C)C3=CC2=O (stereo not shown) [ImPyLDu86]
ratio of cleavage of double-stranded DNA: 70%
